Results from patent publication US20210322520A1, “METHODS OF MODULATING CORTICOSTEROID RESPONSE” (priority 2019, published 2021).
Where two headings read alike, the source gives them in different places.

Key:
[1] = Phase 1 plasma pharmacokinetics in healthy subjects; format: in vivo, human; conditions: for Cmax / half-life / AUC(0-t): plasma; for RAUC0-24 (accumulation ratio): AUC0-24 Day 4 / Day 1; for time of mean peak plasma concentration: after oral dosing
Experimental: Baseline demographics were collected during the screening period between study Day −28 and Day −3. Subjects remained at the clinic from 2 days before the first dose of study drug (Day-2) until study Day 8.
Serum samples for total cortisol and plasma samples for free cortisol, total methylprednisolone, free methylprednisolone, and ACTH1-24 were analyzed by Syneos Health (Quebec City, Quebec, Canada); plasma samples for N25D porcine ACTH1-39 were analyzed by QPS Netherlands BV (Groningen, Netherlands). Concentrations for all analytes were determined using liquid chromatography-tandem mass spectrometry methods that were validated according to the US FDA Bioanalytical Method Validation Guidance (May 2018). […]
The plasma total and free methylprednisolone were determined using a validated LC-MS/MS method developed by Syneos Health (Quebec City, Quebec, Canada). The LC-MS/MS methods for plasma total and free methylprednisolone were conducted using an Atmospheric Pressure Ionization (API) 5000 mass spectrometer (AB Sciex, Toronto, Canada) with positive electrospray ionization and multiple reaction monitoring (precursor/product ion m/z: 375/161 for methylprednisolone; 381/363 for methylprednisolone-d6, which was included as internal standard). Quantitative analysis was accomplished on an ACE Excel 2 C18-PFP (50×3.0 mm, 2 μm) column. The mobile phases were Milli-Q type water/methanol with ammonium formate and formic acid (in different proportions). The LC was run on isocratic mode followed by a column flush. The calibration range for plasma total methylprednisolone concentration was 0.500 to 500 ng/mL with LLOQ of 0.500 ng/mL. The inter- and intra-run-precision (relative SD) were ≤7%, and 8%, while the intra-run accuracy was 100% to 112%. The calibration range for plasma free cortisol concentration was 200 to […]. The inter- and intra-run-precision (relative SD) were ≤18.5% and 3%, respectively, while the intra-run accuracy was 94% to 101%.
All subjects whose PK profile contained at least 4 consecutive quantifiable concentrations were included in the PK population.
All subjects whose PK profile contained at least 4 consecutive quantifiable plasma concentrations of N25D porcine ACTH1-39, ACTH1-24, or total and free methylprednisolone were in the PK population.
PK parameters were estimated using actual blood collection times by noncompartmental methods using Phoenix® WinNonlin® 8.1. (Certara USA, Inc.). AUC0-24, AUC0-last, and AUC0-inf were calculated using the linear log trapezoidal rule. Kei was calculated using linear regression on the terminal slope of the ln-concentration versus time curve. At least 3 time points (excluding Cmax) and r^2≥0.90 were required to calculate and retain Kel and its associated parameters (t1/2 and AUC0-inf).

[2] = Cortisol-equivalent (steroidogenic) exposure of methylprednisolone; format: in vivo, human; conditions: for plasma free cortisol-equivalent AUEC24SG / plasma total cortisol-equivalent AUEC24SG: 32 mg oral daily, mean; for EmaxSG / AUEC24SG[BA]: mean (SD); for TmaxSG: median (min, max); for AUEC24SG[BA]: baseline-corrected
Experimental: Whole blood samples were drawn from each subject at predefined time points over 24 hours after oral methylprednisolone administration on study Day 1 and Day 4 for determination of plasma total and free methylprednisolone concentrations. All subjects who were in both the PK and PD populations were included in the cortisol-equivalent exposure population.
Because oral methylprednisolone is known to suppress endogenous cortisol production, PD parameters for serum total and plasma free cortisol after administration of methylprednisolone were not calculated. Instead, the cortisol-equivalent (steroidogenic) concentration (CSG) of methylprednisolone was estimated. […] Therefore, a conversion factor of 5 was applied to the methylprednisolone concentration (ConcMPD). The following equation was used to estimate the steroidogenic concentration of methylprednisolone (CSG):
CSG=(5×ConcMPo)+ConcCortisol
CSG was used to estimate the following PD parameters for the steroidogenic concentration of plasma total and free methylprednisolone: maximum observed effect for the steroidogenic concentration (CSG) concentration-time profile (EmaxSG), time of EmaxSG (TmaxSG), and area under the effect curve for the CSG concentration-time profile from time 0 to 24 hours (AUEC24SG). Baseline-corrected AUEC24SG (AUEC24SG[BA]) was calculated by subtracting the baseline (Day-1) cortisol concentrations from the time-matched Day 1 steroidogenic concentration.

[3] = Safety analyses (adverse events), phase 1 study; format: in vivo, human
Experimental: All subjects who received at least one dose of the study drug were in the safety population. Safety was assessed via adverse events (AEs), treatment-emergent AEs (TEAEs; events that occurred after the first dose of study drug and through study completion), serious TEAEs (TESAEs), physical examinations, vital signs, 12-lead electrocardiograms (ECGs), and clinical laboratory test findings collected throughout the study.

[4] = test system: corticosterone levels in rats; experiment: Corticosterone levels in rats after RCI or ACTH; format: in vivo, rat
Experimental: Studies were conducted to discover the differences between repository corticotropin injection (RCI) (i.e. Acthar® gel) and synthetic adrenal corticotropin compositions (referred to as ACTH herein) on corticosterone levels in rats.
RCI (10, 40, or 400 IU/kg) or ACTH (0.6, 1.2, or 2.4 mg/kg) was administered to Sprague Dawely rats, plasma samples collected and analyzed for corticosterone.
RCI and ACTH peak corticosterone and area under the curve (AUC) were evaluated.

[5] = human, oral, 32 mg, plasma free methylprednisolone, Day 1, mean (SD)
[6] = human, oral, 32 mg, plasma free methylprednisolone, Day 4, mean (SD)
[7] = free cortisol (steroidogenic concentration), Day 1
[8] = free cortisol (steroidogenic concentration), Day 4
[9] = total cortisol (steroidogenic concentration), Day 1
[10] = total cortisol (steroidogenic concentration), Day 4

**Q.** With C[C@H]1C[C@@H]2[C@H]([C@@H](O)C[C@@]3(C)[C@H]2CC[C@]3(O)C(=O)CO)[C@@]2(C)C=CC(=O)C=C12 [Methylprednisolone, methylprednisolone] as the molecule, how does the “mean exposure of plasma free methylprednisolone as share of plasma total methylprednisolone” value ([1]; both days (Day 1 and Day 4)) read?
**A.** about 8%

**Q.** What about the AUC(0-inf) [1, 5] of the same molecule?
**A.** 106 ng·h/mL

**Q.** And the Tmax ([1]; human, oral, 32 mg, plasma total methylprednisolone, Day 1, median (min, max))?
**A.** 2 h

**Q.** And the Cmax [1, 5]?
**A.** 24.6 ng/mL

**Q.** What about the half-life [1, 5] of the same molecule?
**A.** 1.9 h

**Q.** And the AUC(0-t) ([1]; human, oral, 32 mg, plasma free methylprednisolone, Day 1, mean (SD), read-out: AUC0-last)?
**A.** 104 ng·h/mL

**Q.** What about the AUC(0-t) ([1]; human, oral, 32 mg, plasma free methylprednisolone, Day 1, n = 1, read-out: AUC0-24) of the same molecule?
**A.** 176 ng·h/mL

**Q.** What about the Cmax [1, 6] of the same molecule?
**A.** 21.9 ng/mL

**Q.** What about the half-life [1, 6] of the same molecule?
**A.** 2 h

**Q.** What about the AUC(0-t) ([1]; human, oral, 32 mg, plasma free methylprednisolone, Day 4, mean (SD), read-out: AUC0-last) of the same molecule?
**A.** 89.5 ng·h/mL

**Q.** What about the AUC(0-t) ([1]; human, oral, 32 mg, plasma free methylprednisolone, Day 4, n = 1, read-out: AUC0-24) of the same molecule?
**A.** 145 ng·h/mL

**Q.** And the half-life ([1]; human, oral, 32 mg, plasma total methylprednisolone, Day 1, mean (SD))?
**A.** 2.2 h

**Q.** What about the half-life ([1]; human, oral, 32 mg, plasma total methylprednisolone, Day 4, mean (SD)) of the same molecule?
**A.** 2.4 h

**Q.** And the AUC(0-t) ([1]; human, oral, 32 mg, plasma total methylprednisolone, Day 4, mean (SD), read-out: AUC0-24)?
**A.** 1110 ng·h/mL

**Q.** What about the AUC(0-t) ([1]; human, oral, 32 mg, plasma total methylprednisolone, Day 4, mean (SD), read-out: AUC0-last) of the same molecule?
**A.** 919 ng·h/mL

**Q.** What about the Cmax ([1]; human, po, 32 mg, plasma total methylprednisolone, 32 mg oral daily, Day 1, mean (SD)) of the same molecule?
**A.** 198 ng/mL

**Q.** What about the Cmax ([1]; human, po, 32 mg, plasma total methylprednisolone, 32 mg oral daily, Day 4, mean (SD)) of the same molecule?
**A.** 188 ng/mL

**Q.** And the AUC(0-t) ([1]; human, po, 32 mg, plasma total methylprednisolone, Day 1, mean (SD), read-out: AUC0-24)?
**A.** 1330 ng·h/mL

**Q.** And the AUC(0-t) ([1]; human, po, 32 mg, plasma total methylprednisolone, Day 1, mean (SD), read-out: AUC0-last)?
**A.** 1020 ng·h/mL

**Q.** What about the AUC(0-inf) ([1]; human, po, 32 mg, plasma total methylprednisolone, Day 1, mean (SD)) of the same molecule?
**A.** 1030 ng·h/mL

**Q.** What about the “RAUC0-24 (accumulation ratio)” value ([1]; plasma free methylprednisolone, n = 1) of the same molecule?
**A.** 0.8 (NA)

**Q.** What about the “RAUC0-24 (accumulation ratio)” value ([1]; plasma free methylprednisolone, n = 1, listed as methylprednisolone) of the same molecule?
**A.** 0.8

**Q.** What about the “time of mean peak plasma concentration” value ([1]; plasma free methylprednisolone) of the same molecule?
**A.** 2 h

**Q.** What about the “RAUC0-24 (accumulation ratio)” value ([1]; plasma total methylprednisolone, mean (SD)) of the same molecule?
**A.** 0.9 (0.1)

**Q.** And the “RAUC0-24 (accumulation ratio)” value ([1]; plasma total methylprednisolone, mean (SD), listed as methylprednisolone)?
**A.** 0.9

**Q.** And the “time of mean peak plasma concentration” value ([1]; plasma total methylprednisolone)?
**A.** around 2 hours

**Q.** And the “plasma free cortisol-equivalent AUEC24SG” value ([2]; Day 1)?
**A.** 572.0 ng·h/mL

**Q.** And the “plasma total cortisol-equivalent AUEC24SG” value ([2]; Day 1)?
**A.** 6480.0 ng·h/mL

**Q.** And the “plasma free cortisol-equivalent AUEC24SG” value ([2]; Day 4)?
**A.** 492.0 ng·h/mL

**Q.** What about the “plasma total cortisol-equivalent AUEC24SG” value ([2]; Day 4) of the same molecule?
**A.** 5440.0 ng·h/mL

**Q.** What about the EmaxSG [2, 7] of the same molecule?
**A.** 124.0 (37.2) ng/mL

**Q.** What about the TmaxSG [2, 7] of the same molecule?
**A.** 2.0 (1.0, 4.0) h

**Q.** What about the EmaxSG [2, 8] of the same molecule?
**A.** 109.0 (26.7) ng/mL

**Q.** What about the TmaxSG [2, 8] of the same molecule?
**A.** 2.0 (1.0, 4.0) h

**Q.** What about the “AUEC24SG[BA]” value ([2]; free cortisol, Day 1) of the same molecule?
**A.** 553.0 (187.0) h*ng/mL

**Q.** And the “AUEC24SG[BA]” value ([2]; free cortisol, Day 4)?
**A.** 475.0 (140.0) h*ng/mL

**Q.** And the EmaxSG [2, 9]?
**A.** 1040.0 (251.0) ng/mL

**Q.** What about the TmaxSG [2, 9] of the same molecule?
**A.** 2.0 (2.0, 4.0) h

**Q.** What about the EmaxSG [2, 10] of the same molecule?
**A.** 959.0 (188.0) ng/mL

**Q.** And the TmaxSG [2, 10]?
**A.** 2.0 (1.0, 4.0) h

**Q.** What about the “AUEC24SG[BA]” value ([2]; total cortisol, Day 1) of the same molecule?
**A.** 4860.0 (1680.0) h*ng/mL

**Q.** What about the “AUEC24SG[BA]” value ([2]; total cortisol, Day 4) of the same molecule?
**A.** 4010.0 (1260.0) h*ng/mL

**Q.** And the “subjects experiencing TESAEs (in words)” value ([3]; TESAE of pulmonary embolism in the synthetic ACTH1-24 depot group)?
**A.** no subjects

**Q.** And the AEs ([3]; n = 16 per group)?
**A.** 17 No.

**Q.** What about the “Any TESAE” value ([3]; n = 16 per group) of the same molecule?
**A.** 0 No. (%)

**Q.** And the “Subjects with any TEAE” value ([3]; n = 16 per group)?
**A.** 10 (62.5) No. (%)

**Q.** What about the “TEAE: Contusion” value ([3]; n = 16 per group) of the same molecule?
**A.** 1 (6.3) No. (%)

**Q.** And the “TEAE: Dysuria” value ([3]; n = 16 per group)?
**A.** 0 No. (%)

**Q.** And the “TEAE: Headache” value ([3]; n = 16 per group)?
**A.** 2 (12.6) No. (%)

**Q.** What about the “TEAE: Heart palpitations” value ([3]; n = 16 per group) of the same molecule?
**A.** 2 (12.5) No. (%)

**Q.** And the “TEAE: Injection site reaction” value ([3]; n = 16 per group)?
**A.** 0 No. (%)

**Q.** And the “TEAE: Insomnia” value ([3]; n = 16 per group)?
**A.** 0 No. (%)

**Q.** What about the “TEAE: Somnolence” value ([3]; n = 16 per group) of the same molecule?
**A.** 0 No. (%)

**Q.** What about the “TESAE: Pulmonary embolism” value ([3]; n = 16 per group) of the same molecule?
**A.** 0 No. (%)

**Q.** Which “reduction of corticosterone AUC between ACTH doses” value ([4]; ACTH 0.6, 1.2, 2.4 mg/kg) does the source give for ACTH here?
**A.** no significant reduction

**Q.** And the “dose dependence of corticosterone peak” value ([4]; Sprague Dawely rats, plasma)?
**A.** not dose dependent

**Q.** And the “time of peak corticosterone” value ([4]; Sprague Dawely rats, plasma, RCI 10, 40, 400 IU/kg, ACTH 0.6, 1.2, 2.4 mg/kg)?
**A.** 8 to 24 h
